Here are results for 2 molecules from patent US12441688B1, “CCR5 inhibitor” (KING SAUD UNIVERSITY, priority 2025, dated 2025).

In this test the target is T1, CCR5 receptor (Homo sapiens, UniProt P51681).
T1 construct: expressed in transfected cells; host or cells: Chinese hamster ovary (CHO) cells expressing the CCR5 receptor, kept under blasticidin S selection
Nature of the test: CCR5 binding inhibition assay in CHO cells expressing the CCR5 receptor. An excerpt:
All of the reagents and cell lines were obtained from commercial suppliers like Sigma Aldrich, Merck India Ltd., Himedia, and Rankem chemicals. Chinese Hamster Ovaries (CHO) cells expressing the CCR5 receptor were maintained in Ham's F-12 medium supplemented with 10% fetal calf serum, 50 units of penicillin per milliliter, and 50 micrograms of streptomycin per milliliter, in the presence of 5 micrograms of blasticidin S hydrochloride per milliliter. […] The cells were then washed. […] The inhibitory activity of the compounds on CCR5 binding was calculated using the formula: [1−(E−N)/(P−N)]×100%.
In this formula, N represents the absorbance at 450 nm in the negative control (the control antibody), while P corresponds to the absorbance in the positive control (the detecting antibody). E corresponds to the absorbance of the test compounds.
The data was analyzed using non-linear regression analysis to determine the IC50 values for both compounds.

pIC50: −log10 of the molar value.

T1 sequence (P51681 whole entry): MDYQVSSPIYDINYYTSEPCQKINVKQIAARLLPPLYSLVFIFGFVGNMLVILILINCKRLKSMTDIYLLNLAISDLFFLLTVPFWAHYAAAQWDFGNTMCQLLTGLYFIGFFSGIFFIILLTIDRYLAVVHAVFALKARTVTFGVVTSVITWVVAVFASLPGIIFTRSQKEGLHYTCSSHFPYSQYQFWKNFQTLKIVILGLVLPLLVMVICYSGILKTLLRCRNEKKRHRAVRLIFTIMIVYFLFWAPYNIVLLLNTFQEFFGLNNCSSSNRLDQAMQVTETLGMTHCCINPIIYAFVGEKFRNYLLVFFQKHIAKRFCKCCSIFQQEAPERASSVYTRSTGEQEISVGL

Turning to Maraviroc [reference compound], the “Percent inhibition against CCR5” value reads like this: (1 nM compound) 20.0 ± 1.93%; (10 nM compound) 28.5 ± 2.40%; (100 nM compound) 55.1 ± 2.81%; (1000 nM compound) 68.2 ± 2.97%; (2000 nM compound) 85.3%.

As for `Cc1n[nH]c(C(C)C)c1C(=O)N1CCCN(Cc2ccc(Oc3ccc(C#N)cc3)cc2)CC1` [Novel Compound, 4-(4-((4-(5-isopropyl-3-methyl-1H-pyrazole-4-carbonyl)-1,4-diazepan-1-yl)methyl)phenoxy)benzonitrile], the “Percent inhibition against CCR5” value turned out to be 24.5% (1 nM compound, listed as test compound, 0.001 µM); 39.8% (10 nM compound, listed as test compound, 0.01 µM); 59.1 ± 3.12% (100 nM compound, 0.1 µM); 78.2 ± 4.75% (1000 nM compound, 1 µM); 91.3% (2000 nM compound, listed as test compound, 2 µM). Further, where the note is “1 nM compound, read-out: Percent inhibition against CCR5”, the inhibition at 0.001 µM was at least 24.5%. For the same molecule, the inhibition at 0.01 µM (10 nM compound, read-out: Percent inhibition against CCR5) was at least 39.8%. Moreover, for the setting “100 nM compound, read-out: Percent inhibition against CCR5”, the inhibition at 0.1 µM was at least 59.1%. Further, under “1000 nM compound, read-out: Percent inhibition against CCR5”, the inhibition at 1 µM is at least 78.2%. Under “2000 nM compound, read-out: Percent inhibition against CCR5”, the inhibition at 2 µM is at least 91.3%. In addition, the pIC50 (non-linear regression) is 8.58.

As usually defined, the inhibition is the relative decrease from the control value, in per cent. One may read the pIC50 as −log10 of the IC50, conventionally taken in molar units. Lower therefore signals a large IC50.
